The values below come from publication PMC7229044, “Triterpenoid acids isolated from Schinus terebinthifolia fruits reduce Staphylococcus aureus virulence and abate dermonecrosis” (Scientific Reports, 2020).

As a reminder, the pIC50 is the IC50 on a negative log10 scale, so that one unit is a factor of ten. In general, IC90 refers to the point of the concentration-response curve where the effect stands at 90%. As usually defined, the MIC is the lowest concentration that inhibits growth of the organism.

Each structure is given as a SMILES string. pIC50: −log10 of the molar value. Converted amounts (≈) assume the structure as drawn. “Also recorded” adds a separate entry of the source.

The test system of one series is S. aureus UAMS-1 biofilm. In words: Biofilm formation, human plasma protein-coated microtiter assay. Format: cell-based, Staphylococcus aureus. The following applies: crystal violet; for concentrations that reduced biofilm: for 2 and 3 bacterial growth also reduced. As for the experimental part:
All compounds were examined (2–281 μM) for impact on S. aureus biofilm formation using a human plasma protein-coated assay as previously described[49],[51],[52]. Additionally, to monitor for any growth impact in this assay, the optical density of planktonic cells in the biofilm wells was calculated by transferring the supernatant to a new 96-well plate and reading the OD600nm in a BioTek plate reader. S. aureus isolate UAMS-1 was used for the biofilm assay, and its isogenic sarA mutant (UAMS-929), which has a biofilm deficient phenotype, served as a positive control. All tests were performed in triplicate and repeated using a new stock of bacteria on a separate day.

Series [1] deals with all S. aureus accessory gene regulator (agr) alleles. Briefly: microbe, parasite or virus in culture. The following applies: Staphylococcus aureus, read-out: IC50 values for quorum sensing inhibition, range over all four agr types. In kind it is cell-based. As for the experimental part: (§1) S. aureus agr reporter strains AH1677 (agr I), AH430 (agr II), AH1747 (agr III) and AH1872 (agr IV) were grown overnight in TSB supplemented with chloramphenicol at 37 °C while shaking at 200 rpm. Cultures of S. aureus were standardized by optical density (OD600nm) matching to a 0.5 McFarland standard to reach a final inoculum density in the wells of 5 × 10^5 CFU mL^−1 in TSB, supplemented with 10 μg/mL chloramphenicol. […] Black sided, 96-well, clear bottom, tissue-culture treated plates (Costar 3603) with final well volume of 200 μL were used for all agr inhibition assays. Plates were incubated in a humidified chamber at 37 °C while shaking at 260 rpm. After 24 hours, plates were removed and OD600 and fluorescence were measured by plate reader at an excitation of 493 nm and emission of 535 nm. All tests were performed in triplicate and repeated using a new stock of bacteria on a separate day.

In series [2] the test system is agr activity, AH1872 (agr IV). In words: microbe, parasite or virus in culture. The note with it: Staphylococcus aureus, 24 h; for pIC50: read-out: IC50 for quorum sensing inhibitory activity. Format: cell-based. How it is done: as §1
Series [3] has as its system agr activity, AH1677 (agr I). Briefly: microbe, parasite or virus in culture. Format: cell-based. The note with it: Staphylococcus aureus, 24 h, read-out: IC50 for quorum sensing inhibitory activity. How it is done: as §1
Series [4] relates to agr activity, AH1747 (agr III). Briefly: microbe, parasite or virus in culture. In kind it is cell-based. The note with it: Staphylococcus aureus, 24 h; for pIC50: read-out: IC50 for quorum sensing inhibitory activity; for IC90: read-out: IC90 for quorum sensing inhibitory activity. As for the experimental part: as §1
In series [5] the test system is agr activity, AH430 (agr II). Briefly: microbe, parasite or virus in culture. In kind it is cell-based. The note with it: Staphylococcus aureus, 24 h; for pIC50: read-out: IC50 for quorum sensing inhibitory activity; for IC90: read-out: IC90 for quorum sensing inhibitory activity. How it is done:
as §1

Series [6] is described as follows: HaCaT cytotoxicity assay (LDH). Format: cell-based. The note with it: human, HaCaT keratinocyte cells, read-out: IC50 for cytotoxicity to HaCaTs. As for the experimental part: The HaCaT cell line was maintained and cytotoxicity of compounds (1-3) were assessed using the LDH cytotoxicity assay as previously described. The Therapeutic Index (TI) was calculated as a ratio of the TD50 (Toxic dose for cytotoxicity at IC50) and ED50 (effective dose for quorum sensing inhibiton IC50): = TD50/ED50 . Cytotoxicity of supernatants was further evaluated using a viability/cytotoxicity assay and imaged with fluorescent microscopy as previously described. All tests were performed in triplicate and the full experiment was repeated on a separate day using fresh cell stock.

The next series relates to S. aureus UAMS-1. In words: Broth microdilution growth inhibition (MIC). Format: cell-based, Staphylococcus aureus. The following applies: ND = not detected at 4–563 μM; for pIC50: UAMS1, ≥50% growth inhibition. As for the experimental part:
(§2) Fraction 430F-F5 and isolated compounds of S. terebinthifolia 1-3, were evaluated for minimum inhibitory concentrations (MICs) against the four agr groups, the biofilm test strain (UAMS-1) and NRS249 (for δ-toxin quantification experiments) following the Clinical Laboratory Standards Institute (CLSI) M100-S23 guidelines for microtiter broth dilution testing. Fraction, compounds 1-3 and vehicle were tested at a concentration range of 4 to 563 μM, using 2-fold serial dilution. The optical density (OD600nm) was measured with a BioTek Cytation 3 multimode plate reader, to calculate percent inhibition of growth. […] Control included the vehicle (DMSO) and antibiotic (Ampicillin, MP Biomedicals Inc). All tests were performed in triplicate and repeated using a new stock of bacteria on a separate day.
Background: In broth dilution the organism is exposed to a series of concentrations in liquid medium.

Series [7] relates to S. aureus AH1747 (agr III). Briefly: Broth microdilution growth inhibition (MIC). Format: cell-based, Staphylococcus aureus. The following applies: for pIC50: ≥50% growth inhibition; for pIC50 / MIC: ND = not detected at 4–563 μM; for MIC: ≥90% growth inhibition. As for the experimental part:
as §2

Series [8] has as its system S. aureus AH1263; LAC (agr I). In words: Broth microdilution growth inhibition (MIC). The note with it: for pIC50: read-out: IC50 (growth). Format: cell-based, Staphylococcus aureus. How it is done: as §2
A further series deals with S. aureus NRS249 (agr I). In words: Broth microdilution growth inhibition (MIC). The note with it: ND = not detected at 4–563 μM; for pIC50: ≥50% growth inhibition; for MIC: ≥90% growth inhibition. Format: cell-based, Staphylococcus aureus. How it is done: as §2
In the next series the test system is S. aureus UAMS-929. In words: Broth microdilution growth inhibition (MIC). In kind it is cell-based, Staphylococcus aureus. The following applies: for pIC50: UAMS929, read-out: IC50 (growth). As for the experimental part: as §2
A further series concerns MRSA (LAC, USA300). In words: Murine model of MRSA skin infection (dermonecrosis). In kind it is in vivo. The following applies: BALB/c mice, intradermal, 1×10^8 CFU LAC with single 50 µg dose at time of infection; vs DMSO vehicle. The text has this: A previously described murine model of MRSA skin infection was used to determine the efficacy of each Schinus compound as an anti-infective[25]. All animal experiments described herein were approved by and conducted in accordance with the recommendations of the Animal Care and Use Committee at the University of Colorado Anschutz Medical Campus (IACUC protocol number 117217). One day prior to inoculation, the abdominal hair of 8 week old female BALB/c mice was shaved and chemically removed with topical application of Nair for 1 minute. LAC (USA300, AH1263) was grown in TSB media overnight at 37 °C in a shaking incubator (200 rpm). Overnight LAC culture was diluted 1:100 in fresh TSB media and allowed to grow to early log phase (~2 hr to OD600nm 0.5). Cells were washed in sterile PBS and resuspended to achieve an inoculum of 1×10^8 CFU. 50 μL inoculum suspensions containing 1×10^8 CFU LAC and 50 μg of each compound 1-3 (diluted in DMSO) or DMSO vehicle control were injected intradermally into the abdominal skin of each BALB/c mouse. Baseline body weights for the mice were taken prior to injection and each day following. For determination of lesion size, digital photos of skin lesions were taken with an iPhone camera and analyzed with ImageJ software for Mac. Inoculum CFU was verified by serial dilution, plating, and colony counting after overnight incubation of the plate.

The mark [9] stands for this setting: Staphylococcus aureus, UAMS1, ≥90% growth inhibition.
The mark [10] stands for this setting: AH1263, LAC (agr I), ≥90% growth inhibition, ND = not detected at test range 4–563 μM.
The mark [11] stands for this setting: UAMS-929, ≥90% growth inhibition, ND = not detected at 4–563 μM.

For the compound `CC1(C)CCC2(C(=O)O)CCC3(C)C(=CCC4C5(C)CCC(=O)C(C)(C)C5CCC43C)C2C1` (stereo not drawn) [Compound 1, 3-oxo-olean-12-en-28-oic acid], the “concentrations that increased biofilm formation” value with S. aureus UAMS-1 biofilm was 2 to 70 µM. The “concentrations that reduced biofilm” value in the series on S. aureus UAMS-1 biofilm fell in the range of 141 to 281 µM. Also, the pIC50 in series [1] is 4.15 to 5.40; in series [2] it was 4.46; in [3], 4.74; in series [4], 4.15; in series [5], 5.40; in series [6], 3.85. Moreover, the negative-log IC50 (pIC50) with S. aureus UAMS-1 (Staphylococcus aureus) is < 3.25; in series [7] (Staphylococcus aureus), 3.85. Besides, the concentration for an effect of 90% (IC90) in series [4] was 281 µM; in series [5] it was 70 µM. Further, the MIC is > 563 µM against S. aureus UAMS-1 (setting [9]), 281 µM (≈ 128 µg/mL) in [7] (Staphylococcus aureus) and > 563 µM in series [8] (setting [10]). In series [7] (at up to 80 µM), the growth inhibition is ~ 15%.
For `CC(=CCCC(C)C1CCC2(C)C3=CCC4C(C)(C)C(=O)CCC4(C)C3CCC12C)C(=O)O` (stereo not drawn) [Compound 2, 3-oxotirucalla-7,24Z-dien-26-oic acid], the “concentrations that increased biofilm formation” value in the series on S. aureus UAMS-1 biofilm lay within 2 to 16 µM. Besides, the “concentrations that reduced biofilm” value in the series on S. aureus UAMS-1 biofilm was ≥ 35 µM. In addition, the pIC50 in series [1] is 5.05 to 5.70; in [2], 5.05; in series [3], 5.40; in series [4], 5.05; in [5], 5.70; in [6], 4.15. For the same compound, the negative-log IC50 (pIC50) in the series on S. aureus UAMS-1 (Staphylococcus aureus) is 4.46; in the series on S. aureus NRS249 (agr I) (Staphylococcus aureus) it was 5.05; in [8] (Staphylococcus aureus) it was 3.85; in the series with S. aureus UAMS-929 (Staphylococcus aureus), 4.46. In addition, the concentration for an effect of 90% (IC90) in series [4] and in [5] was 281 µM each time. Besides, the minimum inhibitory concentration (MIC) was found to be 70 µM (≈ 31.8 µg/mL) in the series on S. aureus UAMS-1 (setting [9]); 70 µM (≈ 31.8 µg/mL) in the series on S. aureus UAMS-1 (≥90% growth inhibition); 18 µM (≈ 8.18 µg/mL) against S. aureus NRS249 (agr I) (Staphylococcus aureus); 18 µM (≈ 8.18 µg/mL) in the series on S. aureus NRS249 (agr I); 563 µM (≈ 256 µg/mL) in series [8] (setting [10]); 563 µM (≈ 256 µg/mL) in series [8] (Staphylococcus aureus). Besides, the minimal inhibitory concentration (MIC) with S. aureus UAMS-929 (Staphylococcus aureus, UAMS929) came out at 70 µM (≈ 31.8 µg/mL); with S. aureus UAMS-929 (setting [11]) it was 70 µM (≈ 31.8 µg/mL). The “dermonecrotic lesion / skin damage” value in the series with MRSA (LAC, USA300) is given as “reduced the dermonecrotic lesion area to nearly undetectable levels; also recorded: decreased MRSA-associated tissue damage to the limit of detection”.
On to `CC(=CCCC(C)C1CCC2(C)C3=CCC4C(C)(C)C(O)CCC4(C)C3CCC12C)C(=O)O` (stereo not drawn) [Compound 3, 3α-hydroxytirucalla-7,24Z-dien-26-oic acid], for which the “concentrations that increased biofilm formation” value in the series with S. aureus UAMS-1 biofilm lay within 2 to 16 µM. Further, the “concentrations that reduced biofilm” value in the series on S. aureus UAMS-1 biofilm is ≥ 35 µM. The pIC50 in [1] is 5.05 to 5.40; in [2] it was 5.05; in series [3], 5.40; in series [4] it was 5.05; in series [5] it was 5.05; in series [6] it was 4.15. The pIC50 with S. aureus UAMS-1 (Staphylococcus aureus) was 4.46; in [7] (Staphylococcus aureus), 5.05; in the series with S. aureus NRS249 (agr I) (Staphylococcus aureus) it was 4.74; in series [8] (Staphylococcus aureus), 4.46; with S. aureus UAMS-929 (Staphylococcus aureus), 4.46. Besides, the results for the IC90 in series [2] (read-out: IC90 for quorum sensing inhibitory activity), in series [4] and in series [5] were 281 µM, 18 µM and 281 µM, respectively. The minimum inhibitory concentration (MIC) against S. aureus UAMS-1 (setting [9]) came to 70 µM (≈ 32 µg/mL); in the series with S. aureus UAMS-1 (≥90% growth inhibition), 70 µM (≈ 32 µg/mL); in series [7] (Staphylococcus aureus), 18 µM (≈ 8.22 µg/mL); in series [7], 18 µM (≈ 8.22 µg/mL); in the series with S. aureus NRS249 (agr I) (Staphylococcus aureus), 281 µM (≈ 128 µg/mL); in series [8] (Staphylococcus aureus) it was 141 µM (≈ 64.4 µg/mL). Further, the minimum inhibitory concentration (MIC) turned out to be 70 µM (≈ 32 µg/mL) against S. aureus UAMS-929 (Staphylococcus aureus, UAMS929) and 70 µM (≈ 32 µg/mL) against S. aureus UAMS-929 (setting [11]).
